According to patent publication US20260317356A1, “SMALL MOLECULE MODULATORS OF OGG1” (AZKARRA THERAPEUTICS, INC., priority 2023, published 2026):

Molecular target: hOGG1 (Homo sapiens, UniProt O15527)
Test: Biochemical fluorescence assay to measure enzymatic activity of hOGG1 (OGG1/APEX IC50)
Design: Protein His-hOGG1 (12-323) was prepared; His (N); host or cells: E. coli
Conditions: 1 nM OGG1+2 nM APEX+6 nM dsDNA (8-oxo-dG substrate); pH 7.5; RT 40 min; read-out: OGG1/APEX IC50
In short: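 His-hOGG1 (12-323, E. coli) at 1 nM with 2 nM hAPE1/APEX1, preincubated 20 min RT with compound. Then 6 nM 8-oxo-dG dsDNA substrate added, 40 min at RT in Tris pH 7.5, 100 mM KCl. TAMRA fluorescence (Ex520/Em600) converted to % inhibition vs controls; IC50 from 3-parameter fit of 10-point curve.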

hOGG1, sequence (O15527 12-323): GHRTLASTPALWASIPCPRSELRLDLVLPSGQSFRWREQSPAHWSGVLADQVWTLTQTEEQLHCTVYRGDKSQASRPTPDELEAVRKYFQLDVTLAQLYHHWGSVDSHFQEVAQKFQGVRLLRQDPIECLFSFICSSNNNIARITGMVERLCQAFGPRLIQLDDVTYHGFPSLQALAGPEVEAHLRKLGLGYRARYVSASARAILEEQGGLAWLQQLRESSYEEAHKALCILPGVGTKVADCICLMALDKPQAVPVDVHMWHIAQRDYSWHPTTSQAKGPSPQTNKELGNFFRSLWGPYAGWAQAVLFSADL

IC50	SMILES
< 100 nM	COc1cc(NC(=O)[C@H]2CC[C@@H](N3Cc4c(C)cc(CN5CC[C@H](O)C5)cc4NC3=O)CC2)ccc1C (stereo in doubt) [Example 98, (1R,4s)-4-(7-(((S)-3-hydroxypyrrolidin-1-yl)methyl)-5-methyl-2-oxo-1,2-dihydroquinazolin-3(4H)-yl)-N-(3-methoxy-4-methylphenyl)cyclohexanecarboxamide]
100 to 1000 nM	COc1ccc(NC(=O)[C@H]2CC[C@@H](N3Cc4c(C)cccc4C3=O)CC2)cc1OC [Example 219, (1s,4s)-N-(3,4-dimethoxyphenyl)-4-(4-methyl-1-oxoisoindolin-2-yl)cyclohexanecarboxamide]
100 to 1000 nM	COc1cc(NC(=O)[C@H]2CC[C@@H](N3Cc4c(C)cc(Br)cc4NC3=O)CC2)ccc1C [Example 74, (1s,4s)-4-(7-bromo-5-methyl-2-oxo-1,2-dihydroquinazolin-3(4H)-yl)-N-(3-methoxy-4-methylphenyl)cyclohexanecarboxamide]
> 10000 nM	COc1cc(NC(=O)[C@H]2CC[C@@H](N3Cc4c(C)cccc4C3=O)CC2)ccn1 [Example 234, (1s,4s)-N-(2-Methoxypyridin-4-yl)-4-(4-methyl-1-oxoisoindolin-2-yl)cyclohexanecarboxamide]
100 to 1000 nM	Cc1cccc2c1CN([C@H]1CC[C@@H](C(=O)Nc3ccc(Cl)cc3)CC1)C2=O [Example 216, (1s,4s)-N-(4-Chlorophenyl)-4-(4-methyl-1-oxoisoindolin-2-yl)cyclohexanecarboxamide]
< 100 nM	COc1cc(NC(=O)[C@H]2CC[C@@H](N3Cc4c(C)cc(OCCN(C)C)cc4NC3=O)CC2)ccc1C [Example 82, (1s,4s)-4-(7-(2-(dimethylamino)ethoxy)-5-methyl-2-oxo-1,2-dihydroquinazolin-3(4H)-yl)-N-(3-methoxy-4-methylphenyl)cyclohexanecarboxamide]
100 to 1000 nM	COc1cc(NC(=O)[C@H]2CC[C@@H](N3Cc4c(Br)cccc4NC3=O)CC2)ccc1C [Example 66, (1s,4s)-4-(5-bromo-2-oxo-1,2-dihydroquinazolin-3(4H)-yl)-N-(3-methoxy-4-methylphenyl)cyclohexanecarboxamide]
< 100 nM	COc1cc(NC(=O)[C@H]2CC[C@@H](N3Cc4c(C)cc(NCC5(F)CNC5)cc4C3=O)CC2)ccc1C [Example 140, (1s,4s)-4-(6-(((3-Fluoroazetidin-3-yl)methyl)amino)-4-methyl-1-oxoisoindolin-2-yl)-N-(3-methoxy-4-methylphenyl)cyclohexanecarboxamide]
< 100 nM	COc1cc(NC(=O)[C@H]2CC[C@@H](N3Cc4c(C)cc(O)cc4C3=O)CC2)ccc1C [Example 206, (1s,4s)-4-(6-Hydroxy-4-methyl-1-oxoisoindolin-2-yl)-N-(3-methoxy-4-methylphenyl)cyclohexanecarboxamide]
100 to 1000 nM	COc1cc(NC(=O)[C@H]2CC[C@@H](N3Cc4c(C)cc(O)cc4OC3=O)CC2)ccc1C [Example 116, (1s,4s)-4-(7-hydroxy-5-methyl-2-oxo-2H-benzo[e][1,3]oxazin-3(4H)-yl)-N-(3-methoxy-4-methylphenyl)cyclohexane-1-carboxamide]
100 to 1000 nM	COc1cc(NC(=O)[C@H]2CC[C@@H](N3Cc4c(C)cccc4C3=O)CC2)ccc1C [Example 153, (1s,4s)-N-(3-Methoxy-4-methylphenyl)-4-(4-methyl-1-oxoisoindolin-2-yl)cyclohexanecarboxamide]
< 100 nM	COc1cc(NC(=O)[C@H]2CC[C@@H](N3Cc4c(C)ccc(Br)c4NC3=O)CC2)ccc1C [Example 62, (1s,4s)-4-(8-Bromo-5-methyl-2-oxo-1,2-dihydroquinazolin-3(4H)-yl)-N-(3-methoxy-4-methylphenyl)cyclohexanecarboxamide]
100 to 1000 nM	COc1cc(NC(=O)[C@H]2CC[C@@H](N3Cc4c(ccc(C#N)c4C)NC3=O)CC2)ccc1C [Example 56, (1s,4s)-4-(6-Cyano-5-methyl-2-oxo-1,2-dihydroquinazolin-3(4H)-yl)-N-(3-methoxy-4-methylphenyl)cyclohexanecarboxamide]
< 100 nM	COc1cc(NC(=O)[C@H]2CC[C@@H](N3Cc4c(Br)cc(NCC5CNC5)cc4C3=O)CC2)ccc1C [Example 177, (1s,4s)-4-(6-(Azetidin-3-ylmethylamino)-4-bromo-1-oxoisoindolin-2-yl)-N-(3-methoxy-4-methylphenyl)cyclohexanecarboxamide]
1000 to 10000 nM	COCc1ccc2c(c1C)CN([C@H]1CC[C@@H](C(=O)Nc3ccc(C)c(OC)c3)CC1)C(=O)N2 [Example 48, (1s,4s)-N-(3-Methoxy-4-methylphenyl)-4-(6-(methoxymethyl)-5-methyl-2-oxo-1,2-dihydroquinazolin-3(4H)-yl)cyclohexanecarboxamide]
100 to 1000 nM	COc1cc(NC(=O)[C@H]2CC[C@@H](N3Cc4c(C)cc(C(=O)O)cc4NC3=O)CC2)ccc1C [Example 79, 3-((1s,4s)-4-(3-methoxy-4-methylphenylcarbamoyl)cyclohexyl)-5-methyl-2-oxo-1,2,3,4-tetrahydroquinazoline-7-carboxylic Acid]

IC50	SMILES
1000 to 10000 nM	COc1cc(NC(=O)[C@@H]2[C@@H]3C[C@@H](N4Cc5c(Br)cccc5C4=O)C[C@@H]32)ccc1C [Example 213, (1R,5S,6s)-3-(4-Bromo-1-oxoisoindolin-2-yl)-N-(3-methoxy-4-methylphenyl)bicyclo[3.1.0]hexane-6-carboxamide]
< 100 nM	COc1cc(NC(=O)[C@H]2CC[C@@H](N3Cc4c(C)cc(CNC(C)=O)cc4NC3=O)CC2)ccc1C [Example 27, (1s,4s)-4-(7-(Acetamidomethyl)-5-methyl-2-oxo-1,2-dihydroquinazolin-3(4H)-yl)-N-(3-methoxy-4-methylphenyl)cyclohexanecarboxamide]
> 10000 nM	COc1cc(NC(=O)[C@H]2CC[C@@H](N3Cc4c(CN)cccc4C3=O)CC2)ccc1C [Example 134, (1s,4s)-4-(4-(aminomethyl)-1-oxoisoindolin-2-yl)-N-(3-methoxy-4-methylphenyl)cyclohexane-1-carboxamide]
< 100 nM	COc1cc(NC(=O)[C@H]2CC[C@@H](N3Cc4c(C)cc(C(=O)NCCN(C)C)cc4NC3=O)CC2)ccc1C [Example 84, N-(2-(dimethylamino)ethyl)-3-((1s,4s)-4-(3-methoxy-4-methylphenylcarbamoyl)cyclohexyl)-5-methyl-2-oxo-1,2,3,4-tetrahydroquinazoline-7-carboxamide]
1000 to 10000 nM	COc1ccc(NC(=O)[C@H]2CC[C@@H](N3Cc4c(C)cccc4C3=O)CC2)cn1 [Example 249, (1s,4s)-N-(6-Methoxypyridin-3-yl)-4-(4-methyl-1-oxoisoindolin-2-yl)cyclohexanecarboxamide]
1000 to 10000 nM	Cc1cccc2c1CN([C@H]1CC[C@@H](C(=O)Nc3ccc4cc[nH]c4c3)CC1)C2=O [Example 276, (1s,4s)-N-(1H-indol-6-yl)-4-(4-methyl-1-oxoisoindolin-2-yl)cyclohexanecarboxamide]
> 10000 nM	Cc1ccc(NC(=O)[C@H]2CC[C@@H](N3Cc4c(C)cccc4C3=O)CC2)cc1C1COC1 [Example 125, (1s,4s)-4-(4-Methyl-1-oxoisoindolin-2-yl)-N-(4-methyl-3-(oxetan-3-yl)phenyl)cyclohexane-1-carboxamide]
100 to 1000 nM	COc1cc(NC(=O)[C@H]2CC[C@@H](N3Cc4c(Cl)cccc4C3=O)CC2)ccc1C [Example 149, (1s,4s)-4-(4-Chloro-1-oxoisoindolin-2-yl)-N-(3-methoxy-4-methylphenyl)cyclohexanecarboxamide]
> 10000 nM	COc1cc(NC(=O)[C@@H]2CC[C@@H](N3Cc4c(C)cc(NCCN(C)C)cc4C3=O)C2)ccc1C [Example 139, (1R,3R)-3-(6-((2-(Dimethylamino)ethyl)amino)-4-methyl-1-oxoisoindolin-2-yl)-N-(3-methoxy-4-methylphenyl)cyclopentanecarboxamide]
100 to 1000 nM	Cc1cccc2c1CN([C@H]1CC[C@@H](C(=O)Nc3ccc(Cl)c(F)c3)CC1)C2=O [Example 241, (1s,4s)-N-(4-Chloro-3-fluorophenyl)-4-(4-methyl-1-oxoisoindolin-2-yl)cyclohexanecarboxamide]
< 100 nM	COc1cc(NC(=O)[C@H]2CC[C@@H](N3Cc4c(C)cc(NCC5CNC5)cc4C3=O)CC2)ccc1C [Example 195, (1s,4s)-4-(6-(Azetidin-3-ylmethylamino)-4-methyl-1-oxoisoindolin-2-yl)-N-(3-methoxy-4-methylphenyl)cyclohexanecarboxamide]
1000 to 10000 nM	COc1cc(NC(=O)[C@H]2CC[C@@H](N3Cc4c(ccc(OCCN(C)C)c4C)NC3=O)CC2)ccc1C [Example 40, (1s,4s)-4-(6-(2-(Dimethylamino)ethoxy)-5-methyl-2-oxo-1,2-dihydroquinazolin-3(4H)-yl)-N-(3-methoxy-4-methylphenyl)cyclohexanecarboxamide]
< 100 nM	COc1ccc(NC(=O)[C@]2(C)CC[C@H](N3Cc4c(C)cccc4NC3=O)CC2)cc1C (single isomer, unassigned) [Example 105, (1s,4s)-N-(4-methoxy-3-methylphenyl)-1-methyl-4-(5-methyl-2-oxo-1,2-dihydroquinazolin-3(4H)-yl)cyclohexanecarboxamide]
< 100 nM	COc1cc(NC(=O)[C@H]2CC[C@@H](N3Cc4c(C)cc(C(=O)NCCN(C)C)cc4C3=O)CC2)ccc1C [Example 217, N-(2-(Dimethylamino)ethyl)-2-((1s,4s)-4-(3-methoxy-4-methylphenylcarbamoyl)cyclohexyl)-7-methyl-3-oxoisoindoline-5-carboxamide]
100 to 1000 nM	COc1cc(NC(=O)[C@H]2CC[C@@H](N3C(=O)c4c(C)ccc(C)c4C3=O)CC2)ccc1C [Example 253, (1s,4s)-4-(4,7-Dimethyl-1,3-dioxoisoindolin-2-yl)-N-(3-methoxy-4-methylphenyl)cyclohexanecarboxamide]
